pIC50, pKd: −log10 of the molar value. Calls of active or inactive are those of the source. The calls are words filed in the database; no cut-off is given here. Residues, ends and D or L forms follow the SMILES beside them.
Experiments:
HepG2 [1] = test: Induction of insulin-stimulated 2-NBDG uptake in palmitic acid-induced insulin resistant human HepG2 cells at 1 umol/L preincubated for 24 hrs followed by insulin stimulation and measured after 30 mins by fluorescence assay; type: functional, cell-based
[2] = biological target: Tyrosine-protein phosphatase non-receptor type 6 (Homo sapiens) (UniProt P29350); test: Inhibition of SHP1 (unknown origin) at 0.5 umol/L using OMFP as substrate measured for 4 mins relative to control
Sequence of Tyrosine-protein phosphatase non-receptor type 6 (Homo sapiens) (P29350 whole entry, the tested form may be a part): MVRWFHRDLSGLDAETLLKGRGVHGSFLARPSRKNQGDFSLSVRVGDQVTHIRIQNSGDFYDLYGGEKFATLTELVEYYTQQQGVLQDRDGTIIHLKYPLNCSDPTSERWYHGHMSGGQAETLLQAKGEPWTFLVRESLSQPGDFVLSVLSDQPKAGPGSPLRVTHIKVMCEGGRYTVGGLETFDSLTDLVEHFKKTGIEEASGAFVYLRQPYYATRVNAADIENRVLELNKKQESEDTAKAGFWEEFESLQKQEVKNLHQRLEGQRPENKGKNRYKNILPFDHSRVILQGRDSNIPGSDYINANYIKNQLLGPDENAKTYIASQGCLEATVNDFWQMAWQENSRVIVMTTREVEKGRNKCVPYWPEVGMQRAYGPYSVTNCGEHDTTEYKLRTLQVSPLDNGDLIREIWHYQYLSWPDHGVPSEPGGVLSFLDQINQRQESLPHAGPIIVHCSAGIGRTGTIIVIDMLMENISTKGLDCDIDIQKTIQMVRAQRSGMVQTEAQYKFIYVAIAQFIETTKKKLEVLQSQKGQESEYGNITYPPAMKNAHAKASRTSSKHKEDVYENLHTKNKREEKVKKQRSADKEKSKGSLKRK

[3] = biological target: Receptor-type tyrosine-protein phosphatase F (Homo sapiens) (UniProt P10586); test: Inhibition of LAR (unknown origin) at 1 umol/L using OMFP as substrate measured for 4 mins relative to control
Sequence of Receptor-type tyrosine-protein phosphatase F (Homo sapiens) (P10586 whole entry, the tested form may be a part): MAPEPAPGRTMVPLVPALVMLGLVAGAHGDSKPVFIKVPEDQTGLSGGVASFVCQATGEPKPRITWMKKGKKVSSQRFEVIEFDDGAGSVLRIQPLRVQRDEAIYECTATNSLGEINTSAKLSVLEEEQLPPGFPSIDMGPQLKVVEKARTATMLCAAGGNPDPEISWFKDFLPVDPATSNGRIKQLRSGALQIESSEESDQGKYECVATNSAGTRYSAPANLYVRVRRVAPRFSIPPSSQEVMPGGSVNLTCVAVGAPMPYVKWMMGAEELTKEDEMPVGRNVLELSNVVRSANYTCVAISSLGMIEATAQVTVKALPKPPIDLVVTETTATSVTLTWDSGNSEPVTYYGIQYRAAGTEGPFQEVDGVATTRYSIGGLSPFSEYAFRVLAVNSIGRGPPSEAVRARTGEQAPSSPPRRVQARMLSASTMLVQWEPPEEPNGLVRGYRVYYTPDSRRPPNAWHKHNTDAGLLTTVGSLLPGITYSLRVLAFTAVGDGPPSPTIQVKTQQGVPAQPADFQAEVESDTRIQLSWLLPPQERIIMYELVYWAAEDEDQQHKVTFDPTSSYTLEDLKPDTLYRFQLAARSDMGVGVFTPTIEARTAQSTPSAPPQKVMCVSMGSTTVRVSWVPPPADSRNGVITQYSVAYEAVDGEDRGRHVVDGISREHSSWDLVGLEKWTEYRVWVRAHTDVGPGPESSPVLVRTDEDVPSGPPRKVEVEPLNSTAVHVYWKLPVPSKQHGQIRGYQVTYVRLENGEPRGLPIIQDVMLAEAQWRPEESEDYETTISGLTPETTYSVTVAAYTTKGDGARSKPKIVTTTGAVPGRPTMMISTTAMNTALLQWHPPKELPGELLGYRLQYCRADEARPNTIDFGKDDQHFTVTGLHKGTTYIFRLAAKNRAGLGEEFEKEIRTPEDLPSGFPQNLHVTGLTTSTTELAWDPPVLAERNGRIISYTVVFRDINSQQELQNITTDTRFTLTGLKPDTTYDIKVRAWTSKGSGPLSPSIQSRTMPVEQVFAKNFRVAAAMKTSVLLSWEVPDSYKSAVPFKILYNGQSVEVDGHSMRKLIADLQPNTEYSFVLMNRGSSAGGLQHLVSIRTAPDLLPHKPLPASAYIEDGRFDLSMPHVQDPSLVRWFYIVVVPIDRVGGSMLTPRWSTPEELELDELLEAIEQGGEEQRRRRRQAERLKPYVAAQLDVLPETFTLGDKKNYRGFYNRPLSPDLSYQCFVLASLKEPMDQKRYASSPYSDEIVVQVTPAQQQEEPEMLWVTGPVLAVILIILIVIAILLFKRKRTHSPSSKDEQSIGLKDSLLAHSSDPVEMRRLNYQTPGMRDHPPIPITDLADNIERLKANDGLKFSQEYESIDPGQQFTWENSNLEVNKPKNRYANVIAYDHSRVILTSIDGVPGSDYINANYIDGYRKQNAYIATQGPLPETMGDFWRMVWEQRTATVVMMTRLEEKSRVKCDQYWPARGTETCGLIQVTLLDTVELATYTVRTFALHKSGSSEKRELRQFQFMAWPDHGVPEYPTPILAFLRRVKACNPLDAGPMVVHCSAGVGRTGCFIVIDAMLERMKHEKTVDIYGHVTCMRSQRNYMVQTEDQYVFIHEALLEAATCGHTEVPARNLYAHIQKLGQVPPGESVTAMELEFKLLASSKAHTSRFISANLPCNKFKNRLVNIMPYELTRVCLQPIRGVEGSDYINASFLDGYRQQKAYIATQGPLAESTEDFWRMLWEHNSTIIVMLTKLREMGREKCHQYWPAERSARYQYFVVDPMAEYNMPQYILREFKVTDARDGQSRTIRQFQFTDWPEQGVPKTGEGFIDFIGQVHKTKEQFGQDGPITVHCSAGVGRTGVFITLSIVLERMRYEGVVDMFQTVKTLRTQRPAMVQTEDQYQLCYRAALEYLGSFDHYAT

HepG2 [4] = test: Cytotoxicity against human HepG2 cells assessed as effect on cell viability at 0.1 to 10 umol/L after 24 hrs by MTT assay; type: cell-based; details: hepg2, 24 h
[5] = biological target: T1, Tyrosine-protein phosphatase non-receptor type 1 (Homo sapiens) (UniProt P18031); test: Binding affinity to recombinant human N-terminal poly histidine-tagged PTP1B (Glu2 to Asn321 residues) expressed in Escherichia coli assessed as dissociation rate constant by surface plasmon resonance analysis
T1 sequence (whole entry): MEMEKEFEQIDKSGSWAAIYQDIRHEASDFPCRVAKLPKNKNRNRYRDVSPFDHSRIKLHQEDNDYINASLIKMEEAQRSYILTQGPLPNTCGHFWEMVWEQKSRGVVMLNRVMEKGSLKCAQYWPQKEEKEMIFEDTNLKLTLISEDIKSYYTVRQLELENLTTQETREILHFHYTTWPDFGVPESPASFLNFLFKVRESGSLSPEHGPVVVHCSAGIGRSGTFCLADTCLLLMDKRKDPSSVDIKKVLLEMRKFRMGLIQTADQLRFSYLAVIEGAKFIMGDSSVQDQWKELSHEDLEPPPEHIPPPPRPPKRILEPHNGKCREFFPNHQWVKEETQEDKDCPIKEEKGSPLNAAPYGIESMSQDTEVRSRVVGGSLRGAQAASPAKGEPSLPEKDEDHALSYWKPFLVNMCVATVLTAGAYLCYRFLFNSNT

[6] = biological target: Tyrosine-protein phosphatase non-receptor type 6 (Homo sapiens) (UniProt P29350); test: Inhibition of SHP1 (unknown origin) at 20 umol/L using OMFP as substrate measured for 4 mins relative to control
[7] = biological target: Receptor-type tyrosine-protein phosphatase F (Homo sapiens) (UniProt P10586); test: Inhibition of LAR (unknown origin) at 2.5 umol/L using OMFP as substrate measured for 4 mins relative to control
[8] = biological target: T1, Tyrosine-protein phosphatase non-receptor type 1 (Homo sapiens); test: Inhibition of recombinant human N-terminal poly histidine-tagged PTP1B (Glu2 to Asn321 residues) expressed in Escherichia coli at 20 umol/L using pNPP as substrate measured for 4 mins relative to control
[9] = biological target: T2, Tyrosine-protein phosphatase non-receptor type 11 (Homo sapiens) (UniProt Q06124); test: Inhibition of human GST-tagged SHP2 (1116 to 2162 residues) at 0.5 umol/L using OMFP as substrate measured for 4 mins relative to control
T2 sequence (whole entry): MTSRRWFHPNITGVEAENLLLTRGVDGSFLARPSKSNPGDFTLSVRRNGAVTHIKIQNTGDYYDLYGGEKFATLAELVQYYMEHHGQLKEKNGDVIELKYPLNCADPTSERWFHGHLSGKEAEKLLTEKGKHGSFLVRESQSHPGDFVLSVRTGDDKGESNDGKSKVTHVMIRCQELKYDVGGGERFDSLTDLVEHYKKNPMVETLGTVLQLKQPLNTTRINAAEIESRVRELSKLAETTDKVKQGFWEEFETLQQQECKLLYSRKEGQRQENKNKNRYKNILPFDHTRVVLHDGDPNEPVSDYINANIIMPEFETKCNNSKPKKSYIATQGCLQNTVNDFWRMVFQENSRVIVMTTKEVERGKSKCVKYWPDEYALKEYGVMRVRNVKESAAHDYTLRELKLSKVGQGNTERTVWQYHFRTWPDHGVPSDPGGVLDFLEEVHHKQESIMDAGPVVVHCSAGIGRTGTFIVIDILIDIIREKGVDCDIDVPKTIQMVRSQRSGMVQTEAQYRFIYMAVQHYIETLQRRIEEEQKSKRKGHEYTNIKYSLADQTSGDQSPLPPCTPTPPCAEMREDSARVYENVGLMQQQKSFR

[10] = biological target: T3, Tyrosine-protein phosphatase non-receptor type 2 (Homo sapiens) (UniProt P17706); test: Inhibition of human GST-tagged TCPTP (41 to 1075 residues) expressed in Escherichia coli at 2.5 umol/L using pNPP as substrate measured for 4 mins relative to control
T3 sequence (whole entry): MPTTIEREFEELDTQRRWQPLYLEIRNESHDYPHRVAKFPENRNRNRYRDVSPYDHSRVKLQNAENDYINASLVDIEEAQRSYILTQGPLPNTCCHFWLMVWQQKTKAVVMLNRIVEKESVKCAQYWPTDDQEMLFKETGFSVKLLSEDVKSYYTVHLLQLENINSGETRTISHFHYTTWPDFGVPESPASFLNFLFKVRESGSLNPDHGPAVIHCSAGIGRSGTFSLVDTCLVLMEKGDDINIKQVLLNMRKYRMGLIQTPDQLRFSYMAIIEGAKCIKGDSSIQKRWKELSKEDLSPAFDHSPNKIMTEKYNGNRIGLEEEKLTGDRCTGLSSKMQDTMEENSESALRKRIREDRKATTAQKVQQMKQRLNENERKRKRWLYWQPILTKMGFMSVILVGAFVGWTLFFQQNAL

[11] = biological target: Receptor-type tyrosine-protein phosphatase F (Homo sapiens) (UniProt P10586); test: Inhibition of LAR (unknown origin) at 20 umol/L using OMFP as substrate measured for 4 mins relative to control
[12] = biological target: T2, Tyrosine-protein phosphatase non-receptor type 11 (Homo sapiens); test: Inhibition of human GST-tagged SHP2 (1116 to 2162 residues) at 20 umol/L using OMFP as substrate measured for 4 mins relative to control
HepG2 [13] = test: Induction of insulin-stimulated 2-NBDG uptake in palmitic acid-induced insulin resistant human HepG2 cells at 1 to 10 umol/L preincubated for 24 hrs followed by insulin stimulation and measured after 30 mins by fluorescence assay; type: functional, cell-based
[14] = biological target: T1, Tyrosine-protein phosphatase non-receptor type 1 (Homo sapiens); test: Inhibition of recombinant human N-terminal poly histidine-tagged PTP1B (Glu2 to Asn321 residues) expressed in Escherichia coli at 2.5 umol/L using pNPP as substrate measured for 4 mins relative to control
[15] = biological target: Receptor-type tyrosine-protein phosphatase F (Homo sapiens) (UniProt P10586); test: Inhibition of LAR (unknown origin) at 5 umol/L using OMFP as substrate measured for 4 mins relative to control
[16] = biological target: T1, Tyrosine-protein phosphatase non-receptor type 1 (Homo sapiens); test: Inhibition of recombinant human N-terminal poly histidine-tagged PTP1B (Glu2 to Asn321 residues) expressed in Escherichia coli at 5 umol/L using pNPP as substrate measured for 4 mins relative to control
[17] = biological target: Tyrosine-protein phosphatase non-receptor type 6 (Homo sapiens) (UniProt P29350); test: Inhibition of SHP1 (unknown origin) at 10 umol/L using OMFP as substrate measured for 4 mins relative to control
[18] = biological target: Tyrosine-protein phosphatase non-receptor type 6 (Homo sapiens) (UniProt P29350); test: Inhibition of SHP1 (unknown origin) at 5 umol/L using OMFP as substrate measured for 4 mins relative to control
[19] = biological target: T2, Tyrosine-protein phosphatase non-receptor type 11 (Homo sapiens); test: Inhibition of human GST-tagged SHP2 (1116 to 2162 residues) at 1 umol/L using OMFP as substrate measured for 4 mins relative to control
[20] = biological target: T4, Tyrosine-protein phosphatase non-receptor type 1 (Homo sapiens, UniProt P18031); test: Binding affinity to recombinant human N-terminal poly histidine-tagged PTP1B (Glu2 to Asn321 residues) expressed in Escherichia coli by surface plasmon resonance analysis
T4 sequence (P18031 whole entry): T1 sequence (whole entry)

[21] = biological target: T2, Tyrosine-protein phosphatase non-receptor type 11 (Homo sapiens); test: Inhibition of human GST-tagged SHP2 (1116 to 2162 residues) at 2.5 umol/L using OMFP as substrate measured for 4 mins relative to control
[22] = biological target: T3, Tyrosine-protein phosphatase non-receptor type 2 (Homo sapiens); test: Inhibition of human GST-tagged TCPTP (41 to 1075 residues) expressed in Escherichia coli at 1 umol/L using pNPP as substrate measured for 4 mins relative to control
[23] = biological target: T3, Tyrosine-protein phosphatase non-receptor type 2 (Homo sapiens); test: Inhibition of human GST-tagged TCPTP (41 to 1075 residues) expressed in Escherichia coli at 10 umol/L using pNPP as substrate measured for 4 mins relative to control
HepG2 [24] = test: Inhibition of PTP1B expression in palmitic acid-induced insulin resistant human HepG2 cells at 0.1 to 10 uM by western blot analysis; type: functional, cell-based
[25] = biological target: T1, Tyrosine-protein phosphatase non-receptor type 1 (Homo sapiens); test: Binding affinity to recombinant human N-terminal poly histidine-tagged PTP1B (Glu2 to Asn321 residues) expressed in Escherichia coli assessed as association rate constant by surface plasmon resonance analysis
[26] = biological target: Receptor-type tyrosine-protein phosphatase F (Homo sapiens) (UniProt P10586); test: Inhibition of LAR (unknown origin) at 0.5 umol/L using OMFP as substrate measured for 4 mins relative to control
[27] = biological target: Tyrosine-protein phosphatase non-receptor type 6 (Homo sapiens) (UniProt P29350); test: Inhibition of SHP1 (unknown origin) at 1 umol/L using OMFP as substrate measured for 4 mins relative to control
[28] = biological target: T1, Tyrosine-protein phosphatase non-receptor type 1 (Homo sapiens); test: Inhibition of recombinant human N-terminal poly histidine-tagged PTP1B (Glu2 to Asn321 residues) expressed in Escherichia coli at 40 umol/L using pNPP as substrate measured for 4 mins relative to control
[29] = biological target: T1, Tyrosine-protein phosphatase non-receptor type 1 (Homo sapiens); test: Inhibition of recombinant human N-terminal poly histidine-tagged PTP1B (Glu2 to Asn321 residues) expressed in Escherichia coli at 1 umol/L using pNPP as substrate measured for 4 mins relative to control
[30] = biological target: T2, Tyrosine-protein phosphatase non-receptor type 11 (Homo sapiens); test: Inhibition of human GST-tagged SHP2 (1116 to 2162 residues) at 10 umol/L using OMFP as substrate measured for 4 mins relative to control
[31] = biological target: T4, Tyrosine-protein phosphatase non-receptor type 1; test: Inhibition of recombinant human N-terminal poly histidine-tagged PTP1B (Glu2 to Asn321 residues) expressed in Escherichia coli using pNPP as substrate measured for 4 mins
[32] = biological target: Tyrosine-protein phosphatase non-receptor type 6 (Homo sapiens) (UniProt P29350); test: Inhibition of SHP1 (unknown origin) at 2.5 umol/L using OMFP as substrate measured for 4 mins relative to control
[33] = biological target: T1, Tyrosine-protein phosphatase non-receptor type 1 (Homo sapiens); test: Inhibition of recombinant human N-terminal poly histidine-tagged PTP1B (Glu2 to Asn321 residues) expressed in Escherichia coli at 10 umol/L using pNPP as substrate measured for 4 mins relative to control
[34] = biological target: T2, Tyrosine-protein phosphatase non-receptor type 11 (Homo sapiens); test: Inhibition of human GST-tagged SHP2 (1116 to 2162 residues) at 5 umol/L using OMFP as substrate measured for 4 mins relative to control
[35] = biological target: T3, Tyrosine-protein phosphatase non-receptor type 2 (Homo sapiens); test: Inhibition of human GST-tagged TCPTP (41 to 1075 residues) expressed in Escherichia coli at 20 umol/L using pNPP as substrate measured for 4 mins relative to control
[36] = biological target: T3, Tyrosine-protein phosphatase non-receptor type 2 (Homo sapiens); test: Inhibition of human GST-tagged TCPTP (41 to 1075 residues) expressed in Escherichia coli at 5 umol/L using pNPP as substrate measured for 4 mins relative to control
[37] = biological target: T3, Tyrosine-protein phosphatase non-receptor type 2 (Homo sapiens); test: Inhibition of human GST-tagged TCPTP (41 to 1075 residues) expressed in Escherichia coli at 0.5 umol/L using pNPP as substrate measured for 4 mins relative to control
[38] = biological target: Receptor-type tyrosine-protein phosphatase F (Homo sapiens) (UniProt P10586); test: Inhibition of LAR (unknown origin) at 10 umol/L using OMFP as substrate measured for 4 mins relative to control
[39] = biological target: T1, Tyrosine-protein phosphatase non-receptor type 1 (Homo sapiens); test: Inhibition of recombinant human N-terminal poly histidine-tagged PTP1B (Glu2 to Asn321 residues) expressed in Escherichia coli at 0.5 umol/L using pNPP as substrate measured for 4 mins relative to control

SMILES: CN(CCOc1ccc(CC2SC(=O)NC2=O)cc1)c1ccccn1 (centres undefined)
- Activity (HepG2 [1]): Active

SMILES: CCCCCCCCCCCCCCCC(=O)N[C@H](C(=O)N[C@@H](C)C(=O)N[C@@H](CCC(N)=O)C(=O)N[C@@H](CCC(=O)O)C(=O)N[C@@H](CC(C)C)C(=O)N[C@@H](CCCNC(=N)N)C(=O)N[C@@H](CCCNC(=N)N)C(=O)N[C@H](C(=O)NCC(=O)N[C@@H](CC(=O)O)C(=O)N[C@@H](CCC(=O)O)C(=O)N[C@@H](Cc1ccccc1)C(N)=O)[C@@H](C)CC)[C@@H](C)CC (HELM PEPTIDE1{[CCCCCCCCCCCCCCCC(=O)[*:2]].I.A.Q.E.L.R.R.I.G.D.E.F.[am]}$$$$V2.0)
- inhibition [2]: 2.03%
- inhibition [3]: 3.88%
- Activity (HepG2 [4]): Non-Toxic
- Kdiss [5]: 1.82 ×10⁻⁴ /s
- inhibition [6]: 9.22%
- inhibition [7]: 2.33%
- inhibition [8]: 93.7%
- inhibition [9]: 0.96%
- inhibition [10]: 8.22%
- inhibition [11]: 1.73%
- inhibition [12]: 10.6%
- Activity (HepG2 [13]): Active
- inhibition [14]: 80.6%
- inhibition [15]: 1.52%
- inhibition [16]: 89.3%
- inhibition [17]: 3.89%
- inhibition [18]: 2.22%
- inhibition [19]: 2.02%
- pKd [20]: 8.08
- inhibition [21]: 3.52%
- inhibition [22]: 6.22%
- inhibition [23]: 12.2%
- inhibition (HepG2 [24]): Active
- Ka [25]: 2.17 ×10⁴ /Ms
- inhibition [26]: 2.02%
- inhibition [27]: 1.36%
- inhibition [28]: 98%
- inhibition [29]: 47.2%
- inhibition [30]: 2.77%
- pIC50 [31]: 5.92
- inhibition [32]: 2.88%
- inhibition [33]: 92%
- inhibition [34]: 2.83%
- inhibition [35]: 35.2%
- inhibition [36]: 8.63%
- inhibition [37]: 5.25%
- inhibition [38]: 3.36%
- inhibition [39]: 8.68%

Source: ChEMBL document CHEMBL4371021, “BH3 mimetics derived from Bim-BH3 domain core region show PTP1B inhibitory activity” (Bioorg Med Chem Lett, 2019)
